In patent US7300927B2, “Method for treating or preventing Alzheimer's disease” (priority 1997, dated 2007):

Columns and labels:
[1] = system: mice; conditions: 13 month old mice, administered directly to the brains; cited from earlier work
[2] = system: PNET2 cells; assay: Neuritic sprouting and neuronal differentiation in PNET2 cells; assay type: cell-based; conditions: for NTP species expression associated with neuritic growth/sprouting: PNET2 and SH-Sy5y cells (not separated); for neuritic sprouting and neuronal differentiation: PNET2 cells
Excerpt: (§1) Neuritic sprouting and neuronal differentiation were induced in PNET2 and SH-Sy5y cells by insulin, PMA, or RA stimulation. […] Thus, expression of the immature or fetal forms of NTP are regulated by mechanisms and growth factors distinct from those involved in modulating expression of the 21 kD and 26 kD NTP molecules. Therefore, expression of fetal NTP molecules/genes can be mediated through the IRS-1 cascade, whereas expression of adult brain/AD-associated NTP genes can be regulated mainly through protein kinase C pathways.

[3] = system: SH-Sy5y cells; assay: Neuritic sprouting and neuronal differentiation in SH-Sy5y cells; assay type: cell-based
Excerpt: as §1

[4] = system: PNET2 cells; assay: Insulin stimulated differentiation and NTP expression in PNET2 cells; assay type: cell-based
[5] = system: PNET1 cells; assay: Insulin responsiveness, NTP modulation and signal transduction in PNET1 cells; assay type: cell-based
Excerpt: Insulin is an important mediator of growth and differentiation in CNS neurons.
Correspondingly, the insulin-stimulated association between PI3 kinase and phosphorylated IRS-1 was also impaired in PNET1 cells. In essence, impaired insulin-mediated tyrosyl phosphorylation of IRS-1 in PNET1 cells halted activation of the insulin signal transduction cascade, and subsequent events leading to modulated gene (NTP) expression. […] The results were confirmed by absent association between PI3 kinase and IRS-1-PY in PNET1 cells after insulin stimulation.

Row | Compound | animals showing a delay of about two months in any memory deficit [1] | animals that never develop a memory deficit [1] [%] | NTP species expression associated with neuritic growth/sprouting [2] | neuritic sprouting and neuronal differentiation [2] | neuritic sprouting and neuronal differentiation [3] | synthesis and steady state levels of all five NTP species ([4]; following the transient increases) | levels of the 39 kD, 18 kD and 15 kD NTP species ([4]; insulin stimulated differentiation) | phosphorylation of IRS-1, up-regulation of NTP, neuronal differentiation ([4]; insulin stimulation) | induction of differentiation [5] | insulin modulation of NTP [5] | insulin receptor phosphorylation [5] | insulin-mediated tyrosyl phosphorylation of IRS-1 [5] | insulin-stimulated association between PI3 kinase and phosphorylated IRS-1 [5]
1 | O=C(CCn1cnc2c(=O)[nH]cnc21)Nc1ccc(C(=O)[O-])cc1.[K+] [AIT-082] | about 50% | 50 |  |  |  |  |  |  |  |  |  |  | 
2 | CCCCCCCCCCCCCC(=O)O[C@@H]1[C@@H](C)[C@@]2(O)[C@@H](C=C(CO)C[C@]3(O)C(=O)C(C)=C[C@@H]23)[C@@H]2C(C)(C)[C@]12OC(C)=O [PMA] |  |  | modulated expression of the 21 kD and 26 kD NTP species | induced | induced |  |  |  |  |  |  |  | 
3 | CC1=C(/C=C/C(C)=C/C=C/C(C)=C/C(=O)O)C(C)(C)CCC1 [RA] |  |  | modulated expression of the 21 kD and 26 kD NTP species | induced | induced |  |  |  |  |  |  |  | 
4 | Insulin: Insulin, an important mediator of growth and differentiation in CNS neurons |  |  | increased expression of the fetal brain and PNET-dominant forms of NTP (15 kD and 18 kD) | induced | induced | sustained increases | rapid (within 10 minutes) but transient increases | responded to insulin stimulation with phosphorylation of IRS-1, up-regulation of NTP, and neuronal differentiation | failure of insulin to induce differentiation | absent insulin modulation of NTP | normal insulin receptor phosphorylation | impaired | also impaired
